Measured values as given in article PMC4965013, “Open Source Drug Discovery with the Malaria Box Compound Collection for Neglected Diseases and Beyond” (PLoS Pathogens, 2016).
Several values for one entry are separate records, joined by “and”; a condition that tells them apart may be missing. Equal entries are not always repeated.

Columns and labels:
[1] = system: Strongyloides stercoralis; assay: Strongyloides stercoralis Scynexis; assay type: cell-based; conditions: 10µM
Protocol: Supplement ppat.1005763.s002.xlsx, sheet "S1 Table Heat Map" | column: Strongyloides stercoralis % dead at 10µM Scynexis

CYP2C9 mRNA = assay: MPCC LMA-Luminex CYP2C9 mRNA; assay type: cell-based, human; conditions: 10µM
CYP2D6 mRNA = assay: MPCC LMA-Luminex CYP2D6 mRNA; assay type: cell-based, human; conditions: 10µM
CYP3A4 mRNA = assay: MPCC LMA-Luminex CYP3A4 mRNA; assay type: cell-based, human; conditions: 10µM
MAOB mRNA = assay: MPCC LMA-Luminex MAOB mRNA; assay type: cell-based, human; conditions: 10µM
CYP1A2 mRNA = assay: MPCC LMA-Luminex CYP1A2 mRNA; assay type: cell-based, human; conditions: 10µM
CYP2C19 mRNA = assay: MPCC LMA-Luminex CYP2C19 mRNA; assay type: cell-based, human; conditions: 10µM
MAOA mRNA = assay: MPCC LMA-Luminex MAOA mRNA; assay type: cell-based, human; conditions: 10µM
CYP2D8 mRNA = assay: MPCC LMA-Luminex CYP2D8 mRNA; assay type: cell-based, human; conditions: 10µM
[2] = system: NCI60 human tumor cell lines; assay: NCI60 5-dose (dose-response) assay; assay type: cell-based
Description: Columns IE-KK. NCI: Misra group (data presented first in this paper). NCI60 anti-tumor cell activity. Methods: […] These 60 cell lines, along with others, have been developed at NCI and have been maintained and distributed for research purposes by NCI for over 25 years. The experimental readout provides both inhibition of cell growth and cell kill. The screen was originally designed to prioritize agents for further evaluation. […] This is the same as for the 5-dose assay, described on http://dtp.cancer.gov/branches/btb/ivclsp.html. […] Testing beyond the initial screen: There were 133 compounds that passed threshold to proceed to 5-dose (dose-response) (data are available for the 133 compounds at the DTP public website (dtp.cancer.gov) by searching either the MMV number or NSC number). After examination of the 5-dose data, 10 compounds were selected for repeat testing based generally on potency, differential cell activity or activity on an individual cell lines or cell line panel. A summary of the data for the 10 compounds of interest is in the table below.

Toxoplasma gondii TS-4 = conditions: ref [84]; read-out: Toxoplasma gondi TS4 EC50; cited from earlier work
[3] = mean over cell lines of one experiment, listed as 766523/2

## CCN(CC)c1cc(C)c2cc(NC(=O)c3cccc(OC)c3)ccc2n1 [MMV000498]
[1]
  Strongyloides stercoralis % dead: 25%

## COc1cc2cc(C(=O)Nc3ccccc3)c(N)nc2cc1OC [MMV006767]
CYP2C9 mRNA
  Human hepatocyte CYP2C9 mRNA induction, 0.0 normal: -0.09
CYP2D6 mRNA
  Human hepatocyte CYP2D6 mRNA induction, 0.0 normal: -0.21
CYP3A4 mRNA
  Human hepatocyte CYP3A4 mRNA induction, 0.0 normal: 0.0216
MAOB mRNA
  Human hepatocyte MAOB mRNA induction, 0.0 normal: -0.22
CYP1A2 mRNA
  Human hepatocyte CYP1A2 mRNA induction, 0.0 normal: -0.09
CYP2C19 mRNA
  Human hepatocyte CYP2C19 mRNA induction, 0.0 normal: -0.39
MAOA mRNA
  Human hepatocyte MAOA mRNA induction, 0.0 normal: 0.23
CYP2D8 mRNA
  Human hepatocyte CYP2D8 mRNA induction, 0.0 normal: -0.10

## CCN1CCN(c2cc(C)c3cc(NC(=O)c4ccc(OC)c(OC)c4)ccc3n2)CC1 [MMV019074]
[2]
  Notes (NCI60 5-dose activity pattern): Specific lines sensitive
[2]; 5-dose, mean over NCI60 panel
  MGLI50 = Mean Growth Log I50: -4.91
[2]; [3]
  _MID Log10GI50: -4.8 Molar and -5.03 Molar
  _MID Log10LC50: -4.0 Molar and -4.04 Molar
  _MID Log10TGI: -4.05 Molar and -4.25 Molar

## COc1ccc(C(=O)Nc2ccc3nc(N4CCCCC4)cc(C)c3c2)cc1OC [MMV019758]
Toxoplasma gondii TS-4
  EC50: 25.7 µM

## CCOC(=O)c1cnc2ccc(OC)cc2c1NCc1ccccc1 [MMV665813]
CYP2C9 mRNA
  Human hepatocyte CYP2C9 mRNA induction, 0.0 normal: -0.17
CYP2D6 mRNA
  Human hepatocyte CYP2D6 mRNA induction, 0.0 normal: -1.27
CYP3A4 mRNA
  Human hepatocyte CYP3A4 mRNA induction, 0.0 normal: -0.06
MAOB mRNA
  Human hepatocyte MAOB mRNA induction, 0.0 normal: -1.05
CYP1A2 mRNA
  Human hepatocyte CYP1A2 mRNA induction, 0.0 normal: -0.15
CYP2C19 mRNA
  Human hepatocyte CYP2C19 mRNA induction, 0.0 normal: -0.35
MAOA mRNA
  Human hepatocyte MAOA mRNA induction, 0.0 normal: -0.36
CYP2D8 mRNA
  Human hepatocyte CYP2D8 mRNA induction, 0.0 normal: -0.79
